Laboratory results: the NIST ThermoML archive (doi:10.1007/s10765-007-0223-x)

Test: xn = mol fraction of the nth substance listed
Details: 101 kPa, Liquid; for speed of sound: Single path-length method

COC(C)(C)C [2-methoxy-2-methylpropane] + CC(C)(C)O
Details	mass density [kg/m3]	speed of sound [m/s]
301.65 K, x1 = 0.049	775.452	1105.4
301.65 K, x1 = 0.1	772.914	1100.7
301.65 K, x1 = 0.215	767.025	1089.3
301.65 K, x1 = 0.314	761.986	1079.7
301.65 K, x1 = 0.4	757.94	1072
301.65 K, x1 = 0.498	753.459	1063.6
301.65 K, x1 = 0.597	749.177	1055.5
301.65 K, x1 = 0.707	744.495	1047.6
301.65 K, x1 = 0.799	740.646	1040.8
301.65 K, x1 = 0.9	736.522	1033.1
301.65 K, x1 = 0.951	734.553	1028.8
301.65 K, x1 = 1	732.643	1024.3
303.15 K, x1 = 0.049	772.916	1094.7
303.15 K, x1 = 0.1	770.395	1090.2
303.15 K, x1 = 0.215	764.529	1079.1
303.15 K, x1 = 0.314	759.479	1069.7
303.15 K, x1 = 0.4	755.424	1061.9
303.15 K, x1 = 0.498	750.928	1053.1
303.15 K, x1 = 0.597	746.615	1045
303.15 K, x1 = 0.707	741.905	1036.7
303.15 K, x1 = 0.799	738.033	1029.9
303.15 K, x1 = 0.9	733.889	1021.9
303.15 K, x1 = 0.951	731.913	1017.6
303.15 K, x1 = 1	729.99	1012.8
305.65 K, x1 = 0.049	770.344	1084
305.65 K, x1 = 0.1	767.841	1079.7
305.65 K, x1 = 0.215	762.002	1068.7
305.65 K, x1 = 0.314	756.946	1059.4
305.65 K, x1 = 0.4	752.889	1051.7
305.65 K, x1 = 0.498	748.373	1042.6
305.65 K, x1 = 0.597	744.023	1034.3
305.65 K, x1 = 0.707	739.304	1025.9
305.65 K, x1 = 0.799	735.393	1018.7
305.65 K, x1 = 0.9	731.231	1010.6
305.65 K, x1 = 0.951	729.253	1006.3
305.65 K, x1 = 1	727.325	1001.4
308.15 K, x1 = 0.049	767.747	1073.2
308.15 K, x1 = 0.1	765.265	1069.1
308.15 K, x1 = 0.215	759.448	1058.2
308.15 K, x1 = 0.314	754.398	1049.1
308.15 K, x1 = 0.4	750.325	1041.2
308.15 K, x1 = 0.498	745.794	1032
308.15 K, x1 = 0.597	741.414	1023.5
308.15 K, x1 = 0.707	736.686	1015.2
308.15 K, x1 = 0.799	732.737	1007.6
308.15 K, x1 = 0.9	728.559	999.39
308.15 K, x1 = 0.951	726.577	994.94
308.15 K, x1 = 1	724.645	989.9
310.65 K, x1 = 0.049	765.13	1062.6
310.65 K, x1 = 0.1	762.685	1058.9
310.65 K, x1 = 0.215	756.88	1047.9
310.65 K, x1 = 0.314	751.817	1038.6
310.65 K, x1 = 0.4	747.731	1030.6
310.65 K, x1 = 0.498	743.186	1021.4
310.65 K, x1 = 0.597	738.784	1012.8
310.65 K, x1 = 0.707	734.036	1004.3
310.65 K, x1 = 0.799	730.062	996.52
310.65 K, x1 = 0.9	725.873	988.12
310.65 K, x1 = 0.951	723.884	983.57
310.65 K, x1 = 1	721.953	978.47
313.15 K, x1 = 0.049	762.492	1052
313.15 K, x1 = 0.1	760.064	1048.4
313.15 K, x1 = 0.215	754.27	1037.4
313.15 K, x1 = 0.314	749.212	1028.2
313.15 K, x1 = 0.4	745.126	1020.2
313.15 K, x1 = 0.498	740.567	1010.9
313.15 K, x1 = 0.597	736.13	1002
313.15 K, x1 = 0.707	731.36	993.34
313.15 K, x1 = 0.799	727.372	985.44
313.15 K, x1 = 0.9	723.168	976.81
313.15 K, x1 = 0.951	721.205	972.48
313.15 K, x1 = 1	719.245	967.03
315.65 K, x1 = 0.049	759.831	1041.5
315.65 K, x1 = 0.1	757.407	1037.8
315.65 K, x1 = 0.215	751.633	1026.8
315.65 K, x1 = 0.314	746.577	1017.7
315.65 K, x1 = 0.4	742.483	1009.7
315.65 K, x1 = 0.498	737.91	1000.2
315.65 K, x1 = 0.597	733.459	991.47
315.65 K, x1 = 0.707	728.662	982.37
315.65 K, x1 = 0.799	724.66	974.33
315.65 K, x1 = 0.9	720.449	965.56
315.65 K, x1 = 0.951	718.495	961.27
315.65 K, x1 = 1	716.525	955.73
318.15 K, x1 = 0.049	757.138	1031
318.15 K, x1 = 0.1	754.729	1027.3
318.15 K, x1 = 0.215	748.972	1016.3
318.15 K, x1 = 0.314	743.917	1007.1
318.15 K, x1 = 0.4	739.814	999.06
318.15 K, x1 = 0.498	735.227	989.54
318.15 K, x1 = 0.597	730.762	980.67
318.15 K, x1 = 0.707	725.943	971.38
318.15 K, x1 = 0.799	721.933	963.24
318.15 K, x1 = 0.9	717.738	954.55
318.15 K, x1 = 0.951	715.752	949.91
318.15 K, x1 = 1	713.786	944.34
320.65 K, x1 = 0.049	754.421	1020.5
320.65 K, x1 = 0.1	752.024	1016.8
320.65 K, x1 = 0.215	746.283	1005.9
320.65 K, x1 = 0.314	741.23	996.62
320.65 K, x1 = 0.4	737.119	988.47
320.65 K, x1 = 0.498	732.517	978.82
320.65 K, x1 = 0.597	728.042	969.8
320.65 K, x1 = 0.707	723.201	960.4
320.65 K, x1 = 0.799	719.199	952.31
320.65 K, x1 = 0.9	714.978	943.3
320.65 K, x1 = 0.951	712.991	938.58
320.65 K, x1 = 1	711.028	933.01
323.15 K, x1 = 0.049	751.68	1010
323.15 K, x1 = 0.1	749.295	1006.3
323.15 K, x1 = 0.215	743.567	995.37
323.15 K, x1 = 0.314	738.52	986.19
323.15 K, x1 = 0.4	734.4	977.86
323.15 K, x1 = 0.498	729.786	968.08
323.15 K, x1 = 0.597	725.316	958.97
323.15 K, x1 = 0.707	720.436	949.42
323.15 K, x1 = 0.799	716.426	941.22
323.15 K, x1 = 0.9	712.195	931.99
323.15 K, x1 = 0.951	710.215	927.25
323.15 K, x1 = 1	708.28	921.93
